{"source": "paper PMC5218480", "about": "(PLoS ONE, 2017)", "system": "MV-4-11 cells", "experiment": "Gene expression microarray analysis (Affymetrix PrimeView) and GSEA", "format": "cell-based, human", "parameters": "RFU PODN (11730768_x_at) / Fold change /veh PODN (11730768_x_at) / RFU LINC00158 (11744669_a_at) / Fold change /veh LINC00158 (11744669_a_at) / RFU DUSP10 (11751237_a_at) / Fold change /veh DUSP10 (11751237_a_at) / RFU ID3 (11757404_x_at) / Fold change /veh ID3 (11757404_x_at) / RFU PLEKHG5 (11737974_s_at) / Fold change /veh PLEKHG5 (11737974_s_at) / RFU LRRC4B (11730491_at) / Fold change /veh LRRC4B (11730491_at) / RFU GIMAP4 (11747438_a_at) / Fold change /veh GIMAP4 (11747438_a_at) / RFU KRT8 (11758183_x_at) / Fold change /veh KRT8 (11758183_x_at) / RFU CNN1 (11734310_a_at) / Fold change /veh CNN1 (11734310_a_at) / RFU VPS37D (11726825_at) / Fold change /veh VPS37D (11726825_at) / RFU C10orf10 (11716522_x_at) / Fold change /veh C10orf10 (11716522_x_at) / RFU KIR2DL2 /// KIR2DL4 /// KIR2DL5A /// KIR2DL5B /// KIR2DS1 /// KIR2DS2 /// KIR2DS3 /// KIR2DS4 /// KIR3DL3 /// KIR3DL3 /// KIR3DS1 (11738374_at) / Fold change /veh KIR2DL2 /// KIR2DL4 /// KIR2DL5A /// KIR2DL5B /// KIR2DS1 /// KIR2DS2 /// KIR2DS3 /// KIR2DS4 /// KIR3DL3 /// KIR3DL3 /// KIR3DS1 (11738374_at) / RFU C1QL1 (11718748_at) / Fold change /veh C1QL1 (11718748_at) / RFU TMPRSS4 (11747572_a_at) / Fold change /veh TMPRSS4 (11747572_a_at) / RFU HAMP (11756126_x_at) / Fold change /veh HAMP (11756126_x_at) / RFU RNFT2 (11725882_a_at) / Fold change /veh RNFT2 (11725882_a_at) / RFU NR4A2 (11747474_a_at) / Fold change /veh NR4A2 (11747474_a_at) / RFU ABCC12 (11746883_a_at) / Fold change /veh ABCC12 (11746883_a_at) / RFU TMEM136 (11760407_x_at) / Fold change /veh TMEM136 (11760407_x_at) / RFU CLDN22 /// WWC2 (11732394_at) / Fold change /veh CLDN22 /// WWC2 (11732394_at) / RFU HLA-DPB1 (11760878_x_at) / Fold change /veh HLA-DPB1 (11760878_x_at) / RFU SPINT1 (11716480_a_at) / Fold change /veh SPINT1 (11716480_a_at) / RFU GAP43 (11754022_s_at) / Fold change /veh GAP43 (11754022_s_at) / RFU A4GNT (11735810_at) / Fold change /veh A4GNT (11735810_at) / RFU PRB3 (11715151_x_at) / Fold change /veh PRB3 (11715151_x_at) / RFU TUBB4B (11761932_at) / Fold change /veh TUBB4B (11761932_at) / RFU CAPN14 (11732068_a_at) / Fold change /veh CAPN14 (11732068_a_at) / RFU TMCC2 (11721928_a_at) / Fold change /veh TMCC2 (11721928_a_at) / RFU IRGQ (11745062_a_at) / Fold change /veh IRGQ (11745062_a_at) / RFU FAM174B (11720279_a_at) / Fold change /veh FAM174B (11720279_a_at) / RFU TMPRSS4 (11748680_a_at) / Fold change /veh TMPRSS4 (11748680_a_at) / RFU FAM212B (11763350_a_at) / Fold change /veh FAM212B (11763350_a_at) / RFU PLEKHG5 (11743358_a_at) / Fold change /veh PLEKHG5 (11743358_a_at) / RFU ZSCAN30 (11745921_a_at) / Fold change /veh ZSCAN30 (11745921_a_at) / RFU CMKLR1 (11741424_a_at) / Fold change /veh CMKLR1 (11741424_a_at) / RFU LOC101060620 /// MAPK8IP1 (11723275_at) / Fold change /veh LOC101060620 /// MAPK8IP1 (11723275_at) / RFU SPTSSB (11747773_x_at) / Fold change /veh SPTSSB (11747773_x_at) / RFU PRSS12 (11739890_at) / Fold change /veh PRSS12 (11739890_at) / RFU BIN1 (11741810_x_at) / Fold change /veh BIN1 (11741810_x_at) / RFU WNT11 (11732464_a_at) / Fold change /veh WNT11 (11732464_a_at) / RFU C10orf10 (11716521_a_at) / Fold change /veh C10orf10 (11716521_a_at) / RFU C5orf56 (11738089_at) / Fold change /veh C5orf56 (11738089_at) / RFU CYB561 (11721691_x_at) / Fold change /veh CYB561 (11721691_x_at) / RFU ANKRD19P (11752326_a_at) / Fold change /veh ANKRD19P (11752326_a_at) / RFU OR2T12 /// OR2T33 /// OR2T8 (11738714_s_at) / Fold change /veh OR2T12 /// OR2T33 /// OR2T8 (11738714_s_at) / RFU VCAN (11748164_a_at) / Fold change /veh VCAN (11748164_a_at) / RFU JSRP1 (11732532_at) / Fold change /veh JSRP1 (11732532_at) / RFU KRTAP10-11 (11738290_x_at) / Fold change /veh KRTAP10-11 (11738290_x_at) / RFU MYO3A (11730013_a_at) / Fold change /veh MYO3A (11730013_a_at) / RFU EBF3 (11725865_a_at) / Fold change /veh EBF3 (11725865_a_at) / RFU CAMK2N1 (11719241_x_at) / Fold change /veh CAMK2N1 (11719241_x_at) / RFU C5orf56 (11738088_a_at) / Fold change /veh C5orf56 (11738088_a_at) / RFU OLFML3 (11715873_a_at) / Fold change /veh OLFML3 (11715873_a_at) / RFU LOC100653217 /// NTM (11731650_a_at) / Fold change /veh LOC100653217 /// NTM (11731650_a_at) / RFU MAPK11 (11762145_a_at) / Fold change /veh MAPK11 (11762145_a_at) / RFU FIZ1 (11724087_x_at) / Fold change /veh FIZ1 (11724087_x_at) / RFU OASL (11726364_x_at) / Fold change /veh OASL (11726364_x_at) / RFU SOX15 (11748057_x_at) / Fold change /veh SOX15 (11748057_x_at) / RFU CD79A (11719716_a_at) / Fold change /veh CD79A (11719716_a_at) / RFU HIST1H1D (11736915_at) / Fold change /veh HIST1H1D (11736915_at) / RFU CASKIN2 (11723855_a_at) / Fold change /veh CASKIN2 (11723855_a_at) / RFU LOC730098 (11760151_x_at) / Fold change /veh LOC730098 (11760151_x_at) / RFU OR4N2 (11742367_at) / Fold change /veh OR4N2 (11742367_at) / RFU PRRT2 (11749266_a_at) / Fold change /veh PRRT2 (11749266_a_at) / RFU SNX32 (11753110_a_at) / Fold change /veh SNX32 (11753110_a_at) / RFU CDHR5 (11726645_a_at) / Fold change /veh CDHR5 (11726645_a_at) / RFU RCAN1 (11760418_a_at) / Fold change /veh RCAN1 (11760418_a_at) / RFU FAM167A (11723789_a_at) / Fold change /veh FAM167A (11723789_a_at) / RFU FAM26E (11764081_at) / Fold change /veh FAM26E (11764081_at) / RFU ISYNA1 (11749810_s_at) / Fold change /veh ISYNA1 (11749810_s_at) / RFU ACY1 (11761880_at) / Fold change /veh ACY1 (11761880_at) / RFU 11764098_at / Fold change /veh 11764098_at / RFU SAMD14 (11745864_x_at) / Fold change /veh SAMD14 (11745864_x_at) / RFU NPB (11741838_a_at) / Fold change /veh NPB (11741838_a_at) / RFU TMPRSS6 (11731388_a_at) / Fold change /veh TMPRSS6 (11731388_a_at) / RFU KRTAP10-2 (11738614_at) / Fold change /veh KRTAP10-2 (11738614_at) / RFU ARHGAP8 /// PRR5-ARHGAP8 (11727945_x_at) / Fold change /veh ARHGAP8 /// PRR5-ARHGAP8 (11727945_x_at) / RFU KRTAP5-7 /// NADSYN1 (11734609_at) / Fold change /veh KRTAP5-7 /// NADSYN1 (11734609_at) / RFU RASL12 (11751679_a_at) / Fold change /veh RASL12 (11751679_a_at) / RFU CDKN2B (11736163_a_at) / Fold change /veh CDKN2B (11736163_a_at) / RFU PRF1 (11729649_at) / Fold change /veh PRF1 (11729649_at) / RFU, ZNF638 /// ZNF638-IT1 / Fold change vs veh, ZNF638 /// ZNF638-IT1 / RFU, PANK3 / Fold change vs veh, PANK3 / RFU, SH3YL1 / Fold change vs veh, SH3YL1 / RFU, ZEB2 / Fold change vs veh, ZEB2 / RFU, NRIP1 / Fold change vs veh, NRIP1 / RFU, PTTG1IP / Fold change vs veh, PTTG1IP / RFU, CAPN2 / Fold change vs veh, CAPN2 / RFU, MED14 / Fold change vs veh, MED14 / RFU, SNORA58 / Fold change vs veh, SNORA58 / RFU, C1orf63 / Fold change vs veh, C1orf63 / RFU, LRRFIP1 / Fold change vs veh, LRRFIP1 / RFU, NDUFAF7 / Fold change vs veh, NDUFAF7 / RFU, SLC12A2 / Fold change vs veh, SLC12A2 / RFU, IBTK / Fold change vs veh, IBTK / RFU, ESF1 / Fold change vs veh, ESF1 / Fold change vs veh, TMEM50B / RFU, TAOK1 / Fold change vs veh, TAOK1 / RFU, ACBD3 / Fold change vs veh, ACBD3 / RFU, TMA16 / Fold change vs veh, TMA16 / RFU, RWDD3 / Fold change vs veh, RWDD3 / RFU, BCAT1 / Fold change vs veh, BCAT1 / RFU, EDEM3 / Fold change vs veh, EDEM3 / RFU, TMEM33 / Fold change vs veh, TMEM33 / RFU, WDR75 / Fold change vs veh, WDR75 / RFU, AHCTF1 / Fold change vs veh, AHCTF1 / RFU, TFRC / Fold change vs veh, TFRC / RFU, ZDHHC17 / Fold change vs veh, ZDHHC17 / RFU, NOM1 / Fold change vs veh, NOM1 / RFU, ARL8B / Fold change vs veh, ARL8B / RFU, ZBTB11 / Fold change vs veh, ZBTB11 / RFU, TAMM41 / Fold change vs veh, TAMM41 / RFU, KIAA1704 /// LOC100996395 / Fold change vs veh, KIAA1704 /// LOC100996395 / RFU, ING1 / Fold change vs veh, ING1 / RFU, TRMT61B / Fold change vs veh, TRMT61B / RFU, FUBP3 / Fold change vs veh, FUBP3 / RFU, TP53 / Fold change vs veh, TP53 / RFU, TNKS2 / Fold change vs veh, TNKS2 / RFU, ZFP14 / Fold change vs veh, ZFP14 / RFU, ACTR2 / Fold change vs veh, ACTR2 / RFU, PPP3R1 / Fold change vs veh, PPP3R1 / RFU, PIK3R1 / Fold change vs veh, PIK3R1 / RFU, HNRNPA1 / Fold change vs veh, HNRNPA1 / RFU, RNF170 / Fold change vs veh, RNF170 / RFU, ZNF28 / Fold change vs veh, ZNF28 / RFU, RNGTT / Fold change vs veh, RNGTT / RFU, OGT / Fold change vs veh, OGT / RFU, BRD1 / Fold change vs veh, BRD1 / RFU, MARS / Fold change vs veh, MARS / RFU, ZNF655 / Fold change vs veh, ZNF655 / RFU, FAHD1 / Fold change vs veh, FAHD1 / RFU, BDP1 / Fold change vs veh, BDP1 / RFU, LRRCC1 / Fold change vs veh, LRRCC1 / RFU, ARID1A / Fold change vs veh, ARID1A / RFU, ZNF146 / Fold change vs veh, ZNF146 / RFU, ZNF330 / Fold change vs veh, ZNF330 / RFU, GPN3 / Fold change vs veh, GPN3 / RFU, C9orf123 / Fold change vs veh, C9orf123 / RFU, N4BP2L2 / Fold change vs veh, N4BP2L2 / RFU, ARFIP1 / Fold change vs veh, ARFIP1 / RFU, FAM179B / Fold change vs veh, FAM179B / RFU, BCL10 / Fold change vs veh, BCL10 / RFU, UHRF1BP1L / Fold change vs veh, UHRF1BP1L / RFU, BET1 / Fold change vs veh, BET1 / RFU, CNOT2 / Fold change vs veh, CNOT2 / RFU, ZNF268 / Fold change vs veh, ZNF268 / Fold change vs veh, ZNF507 / RFU, DGCR2 / Fold change vs veh, DGCR2 / RFU, WDSUB1 / Fold change vs veh, WDSUB1 / Fold change vs veh, HSP90B1 /// MIR3652 / RFU, ADSS / Fold change vs veh, ADSS / RFU, GK / Fold change vs veh, GK / RFU, ZNF148 / Fold change vs veh, ZNF148 / RFU, TAF9 / Fold change vs veh, TAF9 / RFU, SLC1A5 / Fold change vs veh, SLC1A5 / RFU, SLMO2 / Fold change vs veh, SLMO2 / RFU, ABCC4 / Fold change vs veh, ABCC4 / RFU, LOC101060439 /// RAP1B / Fold change vs veh, LOC101060439 /// RAP1B / RFU, RFX7 / Fold change vs veh, RFX7 / RFU, GTPBP10 / Fold change vs veh, GTPBP10 / RFU, CNEP1R1 / Fold change vs veh, CNEP1R1 / RFU, BIVM-ERCC5 /// ERCC5 / Fold change vs veh, BIVM-ERCC5 /// ERCC5 / RFU, ILF3 / Fold change vs veh, ILF3 / RFU 11762660_at / Fold change /veh 11762660_at / RFU VCAN (11757783_s_at) / Fold change /veh VCAN (11757783_s_at) / RFU DDX43 (11728927_at) / Fold change /veh DDX43 (11728927_at) / RFU KRT8 (11758188_x_at) / Fold change /veh KRT8 (11758188_x_at) / RFU NKD1 (11759106_at) / Fold change /veh NKD1 (11759106_at) / RFU SRD5A1 (11742802_a_at) / Fold change /veh SRD5A1 (11742802_a_at) / RFU TPSAB1 /// TPSB2 (11721975_s_at) / Fold change /veh TPSAB1 /// TPSB2 (11721975_s_at) / RFU GSTM3 (11746129_a_at) / Fold change /veh GSTM3 (11746129_a_at) / RFU IL23R (11737362_x_at) / Fold change /veh IL23R (11737362_x_at) / RFU TMEM51 (11727254_a_at) / Fold change /veh TMEM51 (11727254_a_at) / RFU PIWIL2 (11732686_x_at) / Fold change /veh PIWIL2 (11732686_x_at) / RFU ORM1 (11744905_x_at) / Fold change /veh ORM1 (11744905_x_at) / RFU CCDC152 (11743942_at) / Fold change /veh CCDC152 (11743942_at) / RFU ECM1 (11717891_a_at) / Fold change /veh ECM1 (11717891_a_at) / RFU IL23R (11748794_a_at) / Fold change /veh IL23R (11748794_a_at) / RFU TNFAIP8L3 (11732012_x_at) / Fold change /veh TNFAIP8L3 (11732012_x_at) / RFU MBOAT4 (11741988_at) / Fold change /veh MBOAT4 (11741988_at) / RFU 11764193_at / Fold change /veh 11764193_at / RFU TMEM53 (11763286_at) / Fold change /veh TMEM53 (11763286_at) / RFU MAGEB2 (11727129_at) / Fold change /veh MAGEB2 (11727129_at) / RFU TMEM200A (11744735_a_at) / Fold change /veh TMEM200A (11744735_a_at) / RFU CCDC152 (11751479_a_at) / Fold change /veh CCDC152 (11751479_a_at) / RFU FAM211A (11726209_a_at) / Fold change /veh FAM211A (11726209_a_at) / RFU RGS16 (11746705_a_at) / Fold change /veh RGS16 (11746705_a_at) / RFU VCAN (11755009_s_at) / Fold change /veh VCAN (11755009_s_at) / RFU RHOB (11743442_s_at) / Fold change /veh RHOB (11743442_s_at) / RFU RGS16 (11720943_a_at) / Fold change /veh RGS16 (11720943_a_at) / RFU RGS16 (11720944_at) / Fold change /veh RGS16 (11720944_at) / RFU, VPS4B / Fold change vs veh, VPS4B / RFU, CREB1 / Fold change vs veh, CREB1 / RFU, DNAJC13 / Fold change vs veh, DNAJC13 / RFU, GNAQ / Fold change vs veh, GNAQ / RFU, CDK5R1 / Fold change vs veh, CDK5R1 / RFU, ZRANB3 / Fold change vs veh, ZRANB3 / RFU, CUL4A / Fold change vs veh, CUL4A / RFU, CCNY / Fold change vs veh, CCNY / RFU, UFL1 / Fold change vs veh, UFL1 / RFU, COG3 / Fold change vs veh, COG3 / RFU, DIAPH2 / Fold change vs veh, DIAPH2 / RFU, SKA2 / Fold change vs veh, SKA2 / RFU, AFF3 / Fold change vs veh, AFF3 / RFU, LMF1 / Fold change vs veh, LMF1 / RFU, IPO11 / Fold change vs veh, IPO11 / RFU, DFFB / Fold change vs veh, DFFB / RFU, FOXP1 / Fold change vs veh, FOXP1 / RFU, CARD8 / Fold change vs veh, CARD8 / RFU, STRN3 / Fold change vs veh, STRN3 / RFU, ADK / Fold change vs veh, ADK / RFU, RASSF2 / Fold change vs veh, RASSF2 / RFU, WIPF1 / Fold change vs veh, WIPF1 / RFU, LARP1B / Fold change vs veh, LARP1B / RFU, RASA1 / Fold change vs veh, RASA1 / RFU, RB1 / Fold change vs veh, RB1 / RFU, PPFIA1 / Fold change vs veh, PPFIA1 / RFU, MAT2A / Fold change vs veh, MAT2A / RFU, CCT5 / Fold change vs veh, CCT5 / RFU, WDR92 / Fold change vs veh, WDR92 / RFU, CUX1 / Fold change vs veh, CUX1 / RFU, TTC7A / Fold change vs veh, TTC7A / RFU, TMEM135 / Fold change vs veh, TMEM135 / RFU, DEPTOR / Fold change vs veh, DEPTOR / RFU, CPM / Fold change vs veh, CPM / RFU, DNAJB6 / Fold change vs veh, DNAJB6 / RFU, CACNA2D3 / Fold change vs veh, CACNA2D3 / RFU, DTX4 / Fold change vs veh, DTX4 / RFU, TFCP2 / Fold change vs veh, TFCP2 / RFU, GMCL1 /// GMCL1P1 / Fold change vs veh, GMCL1 /// GMCL1P1 / RFU, AEBP2 / Fold change vs veh, AEBP2 / RFU, SNHG1 /// SNORD22 /// SNORD25 /// SNORD26 /// SNORD27 /// SNORD28 /// SNORD29 /// SNORD31 / Fold change vs veh, SNHG1 /// SNORD22 /// SNORD25 /// SNORD26 /// SNORD27 /// SNORD28 /// SNORD29 /// SNORD31 / Fold change (Aza/veh), C12orf56 (ProbeSet 11735607_a_at) / Fold change (ACY-1035/veh), C12orf56 (ProbeSet 11735607_a_at) / Fold change (Aza/veh), FGFR1OP (ProbeSet 11751329_s_at) / Fold change (ACY-1035/veh), FGFR1OP (ProbeSet 11751329_s_at) / Fold change (Aza/veh), VPS36 (ProbeSet 11739960_a_at) / Fold change (ACY-1035/veh), VPS36 (ProbeSet 11739960_a_at) / RFU SYPL1 (11715823_x_at) / Fold change /veh SYPL1 (11715823_x_at) / RFU IGFBP7 (11715501_s_at) / Fold change /veh IGFBP7 (11715501_s_at) / RFU REEP3 (11722064_at) / Fold change /veh REEP3 (11722064_at) / RFU IGLL1 (11728026_x_at) / Fold change /veh IGLL1 (11728026_x_at): dose or concentration left out as unconfirmed", "details": "ProbeSet 11717308_a_at; LIST B", "data": [{"smiles": "Nc1ncn([C@@H]2O[C@H](CO)[C@@H](O)[C@H]2O)c(=O)n1", "note": "[azacitidine]", "values": [{"measurement": "Fold change vs veh, WDR75", "result": 1.10}]}]}
